The source of these data is patent US20070213355A1, “1H-Imidazo[4,5-C]Quinoline Derivatives in the Treatment of Protein Kinase Dependent Diseases” (priority 2003, published 2007).

The target of this assay is T1, PDK1 (Homo sapiens, UniProt O15530).
T1 construct: release a DNA fragment encoding amino acids 52-556 of PDK1; made in house; host or cells: Sf9 insect cells (baculovirus)
T1 sequence (O15530 52-556): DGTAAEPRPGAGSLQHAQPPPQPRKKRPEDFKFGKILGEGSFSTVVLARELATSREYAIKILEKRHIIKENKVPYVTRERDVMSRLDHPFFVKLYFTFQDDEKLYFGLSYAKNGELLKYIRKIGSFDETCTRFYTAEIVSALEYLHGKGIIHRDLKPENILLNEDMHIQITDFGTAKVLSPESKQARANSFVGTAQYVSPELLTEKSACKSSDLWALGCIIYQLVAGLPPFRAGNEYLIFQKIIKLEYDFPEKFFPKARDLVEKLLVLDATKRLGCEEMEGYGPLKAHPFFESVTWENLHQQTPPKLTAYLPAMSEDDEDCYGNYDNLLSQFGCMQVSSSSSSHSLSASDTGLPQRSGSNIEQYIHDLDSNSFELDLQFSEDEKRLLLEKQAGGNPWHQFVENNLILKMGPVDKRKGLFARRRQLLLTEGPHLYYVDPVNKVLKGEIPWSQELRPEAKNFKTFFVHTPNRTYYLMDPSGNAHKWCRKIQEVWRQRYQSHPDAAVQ
Description: PDK1 kinase inhibition, purified GST-PDK1, 33P-ATP filter assay. It counts as biochemical. The following applies: GST-PDK1, 10.0 μM ATP, casein substrate; read-out: IC50 for PDK1 inhibition (range class). The source says: PDK1 inhibition can be measured as follows: Cloning and expression: pCMV-GST-PDK1 (G Thomas, FMI Basel, as described in Pullen, N. et al., Science, 279:707-710 (1998)) is digested with EcoR1 and Sma1 to release a DNA fragment encoding amino acids 52-556 of PDK1. This is subsequently ligated to the vector pFB-G01-GST1 with compatible ends achieved by restriction digestion with EcoR1 and Stu1. The ligation reaction is transformed into XL-1 Blue bacteria and plated on selective LB agar. Resultant colonies are cultured overnight, plasmid DNA extracted and restriction analysed. Colonies that are found to contain plasmids with the correct insert are taken for large-scale plasmid preparation and subsequent sequence analysis to confirm the expected plasmid sequence.
Production of virus: Transfer vectors containing the kinase domain of PDK1 are transfected into the DH10Bac cell line (GIBCO) and the cells are plated on selective agar plates. Colonies without insertion of the fusion sequence into the viral genome (carried by the bacteria) are blue. Single, white colonies are picked and viral DNA (bacmid) is isolated from the bacteria by standard plasmid purification procedures. Sf9 cells or Sf21 cells (American Type Culture Collection) are then transfected in 25 cm^2 flasks with the viral DNA using Celifectin reagent.
Protein expression in Sf9 cells: Virus-containing media is collected from the transfected cell culture and used for infection to increase its titer. Virus-containing media obtained after two rounds of infection is used for large-scale protein expression. For large-scale protein expression 100 cm^2 round tissue culture plates are seeded with 5×10^7 cells/plate and infected with 1 mL of virus-containing media (approx. 5 MOIs). After 3 days, the cells are scraped off the plate and centrifuged at 500 rpm for 5 minutes. Cell pellets from 10-20, 100 cm^2 plates are resuspended in 50 mL of ice-cold lysis buffer (25 mM Tris-HCl, pH 7.5, 2 mM EDTA, 1% NP-40, 1 mM DTT, 1 mMP MSF). The cells are stirred on ice for 15 minutes and then centrifuged at 5,000 rpms for 20 minutes.
Purification of GST-tagged proteins: The centrifuged cell lysate is loaded onto a 2 mL glutathione-sepharose column (Pharmacia) and washed 3× with 10 mL of 25 mM Tris-HCl, pH 7.5, 2 mM EDTA, 1 mM DTT, 200 mM NaCl. The GST-tagged proteins are then eluted by 10 applications (1 mL each) of 25 mM Tris-HCl, pH 7.5, 10 mM reduced-glutathione, 100 mM NaCl, 1 mM DTT, 10% glycerol and stored at −70° C.
Measure of enzyme activity: Tyrosine protein kinase assays with purified GST-PDK1 are carried out in a final volume of 30 μL containing 100 ng of enzyme protein, 50 mM HEPES, pH 7.6, 10 mM MgCl2, 1 mM DTT, 10 μM Na3VO4, 100 μg/mL casein, 1% DMSO, 0.1 mM EGTA, pH 8.0, 10.0 μM ATP and 0.1 μCi [γ-^33P] ATP. The activity is assayed in the presence or absence of inhibitors [compounds of formula (I)] by measuring the incorporation of ^33P from [γ^33P] ATP into appropriate substrates. The assay is carried out in 96-well plates at ambient temperature for 30 minutes under conditions described below and terminated by the addition of 20 μL of 125 mM EDTA. Subsequently, 40 μL of the reaction mixture are transferred onto Immobilon-PVDF membrane (Millipore) previously soaked for 5 minutes with methanol, rinsed with water, then soaked for 5 minutes with 0.5% H3PO4 and mounted on vacuum manifold with disconnected vacuum source. After spotting all samples, vacuum is connected and each well-rinsed with 200 μL 0.5% H3PO4. Membranes are removed and washed 4× on a shaker with 1.0% H3PO4, once with ethanol. Membranes are counted after drying at ambient temperature, mounting in Packard TopCount 96-well frame, and addition of 10 μl/well of Microscint™ (Packard). IC50 values of compounds of formula (I) are calculated by linear regression analysis of the percentage inhibition of each compound in duplicate, at four concentrations (usually 0.01, 0.1, 1 and 10 μM). […]
For the compound `COc1cccc(C#Cc2ccc3ncc4ncn(-c5ccc(CCCN)cc5)c4c3c2)c1` [Example 9, 3-{4-[8-(3-Methoxy-phenylethynyl)-imidazo[4,5-c]quinolin-1-yl]-phenyl}-propylamine], the IC50 (in general, the concentration that inhibits the measured activity by half) is at most 500 nM. `NCCc1ccc(-n2cnc3cnc4cc(F)c(C#Cc5ccccc5)cc4c32)cc1` [Example 26, 2-[4-(7-Fluoro-8-phenylethynyl-imidazo[4,5-c]quinolin-1-yl)-phenyl]-ethylamine]: the IC50 was in the range of 500 to 1000 nM. Consider `NCCCc1ccc(-n2cnc3cnc4ccc(/C=C/c5ccccc5)cc4c32)cc1` [Example 38, 3-[4-(8-trans-Styryl-imidazo[4,5-c]quinolin-1-yl)-phenyl]-propylamine], for which the IC50 is at most 500 nM. Turning to `COc1cccc(C#Cc2ccc3ncc4nc(C)n(-c5ccc(CCN)cc5)c4c3c2)c1` [Example 33, 2-{4-[8-(3-Methoxy-phenylethynyl)-2-methyl-imidazo[4,5-c]quinolin-1-yl]-phenyl}-ethylamine], the IC50 fell in the range of 500 to 1000 nM.

With `NCCc1ccc(-n2cnc3cnc4ccc(C#Cc5cccnc5)cc4c32)cc1` [Example 4, 2-[4-(8-Pyridin-3-ylethynyl-imidazo[4,5-c]quinolin-1-yl)-phenyl]-ethylamine], the IC50 is at most 500 nM. The same measure for `NCCCc1ccc(-n2cnc3cnc4ccc(C#Cc5ccc6c(c5)OCO6)cc4c32)cc1` [Example 12, 3-[4-(8-Benzo[1,3]dioxol-5-ylethynyl-imidazo[4,5-c]quinolin-1-yl)-phenyl]-propylamine]: at most 500 nM.

Consider `NCCc1ccc(-n2cnc3cnc4cc(F)c(C#Cc5cccnc5)cc4c32)cc1` [Example 29, 2-[4-(7-Fluoro-8-pyridin-3-ylethynyl-imidazo[4,5-c]quinolin-1-yl)-phenyl]-ethylamine], for which the IC50 lay in the range of 500 to 1000 nM. Under `NCCCc1ccc(-n2cnc3cnc4ccc(C#Cc5cccnc5)cc4c32)cc1` [Example 11, 3-[4-(8-Pyridin-3-ylethynyl-imidazo[4,5-c]quinolin-1-yl)-phenyl]-propylamine] stands at most 500 nM; under `NCCCc1ccc(-n2cnc3cnc4ccc(C#Cc5ccc(S(N)(=O)=O)cc5)cc4c32)cc1` [Example 13, 4-{1-[4-(3-Amino-propyl)-phenyl]-1H-imidazo[4,5-c]quinolin-8-ylethynyl}-benzenesulfonamide], at most 500 nM.

For `Cc1nc2cnc3ccc(C#Cc4cccnc4)cc3c2n1-c1ccc(CCN)cc1` [Example 35, 2-[4-(2-Methyl-8-pyridin-3-ylethynyl-imidazo[4,5-c]quinolin-1-yl)-phenyl]-ethylamine], the IC50 was at most 500 nM. The same measure for `NCCc1ccc(-n2cnc3cnc4cc(F)c(C#Cc5ccc6c(c5)OCO6)cc4c32)cc1` [Example 30, 2-[4-(7-Fluoro-8-benzo[1,3]dioxol-5-ylethynyl-imidazo[4,5-c]quinolin-1-yl)-phenyl]-ethylamine]: 500 to 1000 nM; for `Cc1nc2cnc3ccc(C#Cc4ccccc4)cc3c2n1-c1ccc(CCN)cc1` [Example 32, 2-[4-(2-Methyl-8-phenylethynyl-imidazo[4,5-c]quinolin-1-yl)-phenyl]-ethylamine]: at most 500 nM. Under `COc1ccc(C#Cc2ccc3ncc4ncn(-c5ccc(CCN)cc5)c4c3c2)cc1` [Example 3, 2-{4-[8-(4-Methoxy-phenylethynyl)-imidazo[4,5-c]quinolin-1-yl]-phenyl}-ethylamine] stands at most 500 nM. Under `COc1ccc(C#Cc2cc3c(cc2F)ncc2ncn(-c4ccc(CCN)cc4)c23)cc1` [Example 28, 2-{4-[7-Fluoro-8-(4-methoxy-phenylethynyl)-imidazo[4,5-c]quinolin-1-yl]-phenyl}-ethylamine] stands at most 500 nM; under `NCCCc1ccc(-n2cnc3cnc4cc(Cl)c(C#Cc5cccnc5)cc4c32)cc1` [Example 23, 3-[4-(7-Chloro-8-pyridin-3-ylethynyl-imidazo[4,5-c]quinolin-1-yl)-phenyl]-propylamine], 500 to 1000 nM; under `NCCCc1ccc(-n2cnc3cnc4ccc(C#Cc5ccccc5)cc4c32)cc1` [Example 8, 3-[4-(8-Phenylethynyl-imidazo[4,5-c]quinolin-1-yl)-phenyl]-propylamine], at most 500 nM. For the compound `COc1ccc(C#Cc2ccc3ncc4nc(C)n(-c5ccc(CCN)cc5)c4c3c2)cc1` [Example 34, 2-{4-[8-(4-Methoxy-phenylethynyl)-2-methyl-imidazo[4,5-c]quinolin-1-yl]-phenyl}-ethylamine], the IC50 was at most 500 nM. On to `COc1cccc(C#Cc2cc3c(cc2F)ncc2ncn(-c4ccc(CCN)cc4)c23)c1` [Example 27, 2-{4-[7-Fluoro-8-(3-methoxy-phenylethynyl)-imidazo[4,5-c]quinolin-1-yl]-phenyl}-ethylamine], for which the IC50 was 500 to 1000 nM. Under `COc1ccc(C#Cc2ccc3ncc4ncn(-c5ccc(CCCN)cc5)c4c3c2)cc1` [Example 10, 3-{4-[8-(4-Methoxy-phenylethynyl)-imidazo[4,5-c]quinolin-1-yl]-phenyl}-propylamine] stands at most 500 nM.
